Where two headings read alike, the source gives them in different places. Each block holds one molecule with its values, some of them ahead of it.
Tests used:
[1] = tested on: GILZ mRNA in HUT-78 cells (CD74 positive T lymphoma); assay: GILZ mRNA induction in HUT-78 cells (RT-PCR); type: cell-based, human; details: 18 hours; for Emax: GILZ mRNA relative fold of change; for EC50: Homo sapiens, HuT78, GILZ mRNA, free drug
Experimental: (§1) In vitro activity and targeted delivery of ADC 12-4, 12-5, 12-6, 12-7, 12-9, 12-10, the isotype-matched negative controls 12-11, 12-12, and naked anti-hCD74 (LL1) control were assessed in HUT-78 an SUDHL-6 cells (CD74 positive T and B lymphoma cell lines respectively) as well as 786-O cells (a CD74 negative renal carcinoma cell line). The cells were treated with individual ADC, anti-hCD74 antibody, or budesonide (Bud) for 18 hours and then glucocorticoid-induced leucine zipper (GILZ) mRNA, a glucocorticoid-regulated gene, was measured by RT-PCR. […] (The activity at the highest concentration in 786-O cells may be due to impurity of the sample or possible low CD74 expression in cells.). The overall activity profile of the ADC is consistent with targeted delivery of a payload (e.g. dexamethasone or budesonide) that is dependent on the binding and internalization of the antibody with its antigen on the cell surface, and on the efficiency of linker cleavage inside the cells.
(§2) The quantitation of Glucocorticoid-induced leucine zipper (GILZ) mRNA expression was determined by real time-PCR. In brief, actively growing cells were harvested and then resuspended in the assay buffer (HBSS plus 2% FBS) at concentration of 1.1×10^6/ml. 5×10^4 cells/well in 45 μl volume were plated to Greiner 384 well v-bottom reagent plates (Ref #781280). […] After 18 hour incubation, the cells were lysed, and the lysates were used for cDNA synthesis and real-time PCR, according to manufacturer's instructions in TaqMan Gene Expression Cells-to-CT™ Kit (Invitrogen, Carlsbad, Calif.). Specific primers against human GILZ and GAPDH were purchased from the Life Technologies (Invitrogen, Carlsbad, Calif.). Real-time PCR reactions were performed on the Applied Biosystems 7900 HT Fast Real-Time PCR System. Thermal cycling conditions consisted of an initial UDG incubation hold (50° C., 2 min) denaturing and enzyme activation step (95° C., 2 min) followed by 40 cycles of denaturing (95° C., 15 s), annealing and extending (60° C., 1 min). The mRNA levels were normalized to GAPDH (internal control) using the formula Δ threshold cycle (CT)=CT target−CT reference. The differential expression signal were expressed as delta Ct (ΔCt) by subtracting the Ct values of the un-stimulated samples (containing only assay buffer or DMSO vehicle) from those of the stimulated samples and expressed as relative fold of change using the formula: 2^ΔΔCT. The graphs were generated in GraphPad Prism and the EC50 values were calculated with non-linear regression curve fit of the data in GraphPad Prism.

[2] = tested on: GILZ mRNA in SUDHL-6 cells (CD74 positive B lymphoma); assay: GILZ mRNA induction in SUDHL-6 cells (RT-PCR); type: cell-based, human; details: 18 hours; for Emax: GILZ mRNA relative fold of change; for EC50: Homo sapiens, SU-DHL-6, GILZ mRNA, free drug
Experimental: as §1, §2

[3] = tested on: GILZ mRNA in 786-O cells (CD74 negative renal carcinoma); assay: GILZ mRNA induction in 786-O cells (RT-PCR); type: cell-based, human; details: 786-0 cells (CD74(—)), 18 hours; for Emax: GILZ mRNA relative fold of change; for EC50: Homo sapiens, GILZ mRNA, free drug
Experimental: as §1, §2

[4] = Solubility of drug-linkers in 20% MeCN/H2O; type: physicochemical; details: tested at a concentration of 10 mg/mL
Experimental: The solubility of exemplary drug-linker conjugates in aqueous solutions was evaluated. Linkers utilized in drug conjugates may have aqueous solubility to enable conjugation in aqueous media amenable to protein solubilization. Furthermore, linkers with aqueous solubility are considered hydrophilic, and may confer to the drug conjugate a reduced propensity to aggregate relative to standard hydrophobic linkers in the literature. The following exemplary drug-linkers were tested in an aqueous solution comprising 20% acetonitrile (MeCN/H2O) for solubility at a concentration of 10 mg/mL.

[5] = In vitro stability of drug-linkers in human whole blood (parent and released dexamethasone, LC-MS/MS); details: for Calculated Conc. for dexamethasone in human whole blood: released dexamethasone
[6] = In vitro stability of drug-linkers in rat liver lysosomal lysate (parent and released dexamethasone, LC-MS/MS); details: for Calculated Conc. for dexamethasone rat lysomeal lysate: released dexamethasone
[7] = not given; remark: listed apart in the source
[8] = Matrix spiking (time 0 sample, blood pretreated with stopping reagent)
[9] = Matrix spiking (lysosomes pretreated with stopping reagent)

Molecule: CCCC1O[C@@H]2C[C@H]3[C@@H]4CCC5=CC(=O)C=C[C@]5(C)[C@H]4[C@@H](O)C[C@]3(C)[C@]2(C(=O)CO)O1 (stereo partly shown) [Budesonide, budesonide]
Emax [1]: 9.03 | EC50 [1]: 0.65 nM | Emax [2]: 14.33 | EC50 [2]: 2.21 nM | Emax [3]: 25.68 | EC50 [3]: 0.58 nM

Molecule: C[C@@H]1C[C@H]2[C@@H]3CCC4=CC(=O)C=C[C@]4(C)[C@@]3(F)[C@@H](O)C[C@]2(C)[C@@]1(O)C(=O)COP(=O)(O)OP(=O)(O)OCCNC(=O)COC1C#CCCCCC1 (stereo partly drawn) [Drug Linker 1-4, 2-(2-(cyclooct-2-yn-1-yloxy)acetamido)ethyl(2-((8 S,9R,10S,11S,13 S,14 S,16R,17R)-9-fluoro-11,17-dihydroxy-10,13,16-trimethyl-3-oxo-6,7,8,9,10,11,12,13,14,15,16,17-dodecahydro-3H-cyclopenta[a]phenanthren-17-yl)-2-oxoethyl) dihydrogen pyrophosphate]
Measured Solubility in 20% MeCN/H2O [4]: >10 mg/mL | Calculated Conc. for each compound in human whole blood ([5]; 0 m, 37° C.): 1617 nM | Calculated Conc. for each compound in human whole blood ([5]; 1 hr, 37° C.): 1421 nM | Calculated Conc. for each compound in human whole blood ([5]; 6 hr, 37° C.): 1400 nM | Calculated Conc. for each compound in human whole blood [5, 8]: 3059 nM | Calculated Conc. for dexamethasone in human whole blood ([5]; 0 m): 0 nM | Calculated Conc. for dexamethasone in human whole blood ([5]; 1 hr): 0 nM | Calculated Conc. for dexamethasone in human whole blood ([5]; 6 hr): 0 nM | Calculated Conc. for dexamethasone in human whole blood ([5]; Matrix Spiking): 2 nM | Calculated Conc. for each compound in rat lysomal lysate ([6]; 0 m, 37° C.): 1148.2 nM | Calculated Conc. for each compound in rat lysomal lysate ([6]; 5 m, 37° C.): 158.2 nM | Calculated Conc. for each compound in rat lysomal lysate ([6]; 10 m, 37° C.): 19.0 nM | Calculated Conc. for each compound in rat lysomal lysate ([6]; 15 m, 37° C.): 3.7 nM | Calculated Conc. for each compound in rat lysomal lysate [6, 9]: 2487.3 nM | Calculated Conc. for dexamethasone rat lysomeal lysate ([6]; 0 m): 4.7 nM | Calculated Conc. for dexamethasone rat lysomeal lysate ([6]; 5 m): 320.7 nM | Calculated Conc. for dexamethasone rat lysomeal lysate ([6]; 10 m): 559.4 nM | Calculated Conc. for dexamethasone rat lysomeal lysate ([6]; 15 m): 831.7 nM | Calculated Conc. for dexamethasone rat lysomeal lysate ([6]; 30 m): 1059.6 nM | Calculated Conc. for dexamethasone rat lysomeal lysate ([6]; 1 hr): 1148.8 nM | Calculated Conc. for dexamethasone rat lysomeal lysate ([6]; 2 hr): 854.5 nM | Calculated Conc. for dexamethasone rat lysomeal lysate ([6]; 3 hr): 841.9 nM | Calculated Conc. for dexamethasone rat lysomeal lysate ([6]; 6 hr): 826.6 nM

Molecule: C[C@@H]1C[C@H]2[C@@H]3CCC4=CC(=O)C=C[C@]4(C)[C@@]3(F)[C@@H](O)C[C@]2(C)[C@@]1(O)C(=O)COP(=O)(O)OCCNC(=O)COC1C#CCCCCC1 (stereo partly drawn) [Drug Linker 4-3, 2-(2-(cyclooct-2-yn-1-yloxy)acetamido)ethyl (2-((8S,9R,10S,11S,13S,14S,16R,17R)-9-fluoro-11,17-dihydroxy-10,13,16-trimethyl-3-oxo-6,7,8,9,10,11,12,13,14,15,16,17-dodecahydro-3H-cyclopenta[a]phenanthren-17-yl)-2-oxoethyl) hydrogen phosphate]
Calculated Conc. for each compound in human whole blood (0 min): 1539 nM | Calculated Conc. for dexamethasone in human whole blood (20 min): 0 nM | Calculated Conc. for each compound in human whole blood (20 min): 1861 nM | Calculated Conc. for dexamethasone in human whole blood (1 h): 0 nM | Calculated Conc. for each compound in human whole blood (1 h): 1619 nM | Calculated Conc. for dexamethasone in human whole blood (3 h): 1 nM | Calculated Conc. for each compound in human whole blood (3 h): 1677 nM | Calculated Conc. for dexamethasone in human whole blood (6 h): 3 nM | Calculated Conc. for each compound in human whole blood (6 h): 2040 nM | Calculated Conc. for dexamethasone rat lysomeal lysate ([7]; 0 min): 0.9 nM | Calculated Conc. for each compound in rat lysomal lysate ([7]; 0 min): 888.8 nM | Calculated Conc. for dexamethasone rat lysomeal lysate ([7]; 5 min): 14.5 nM | Calculated Conc. for each compound in rat lysomal lysate ([7]; 5 min): 1156.1 nM | Calculated Conc. for dexamethasone rat lysomeal lysate ([7]; 10 min): 14.2 nM | Calculated Conc. for each compound in rat lysomal lysate ([7]; 10 min): 983.4 nM | Calculated Conc. for dexamethasone rat lysomeal lysate ([7]; 15 min): 22.3 nM | Calculated Conc. for each compound in rat lysomal lysate ([7]; 15 min): 1032.6 nM | Calculated Conc. for dexamethasone rat lysomeal lysate ([7]; 30 min): 28.9 nM | Calculated Conc. for each compound in rat lysomal lysate ([7]; 30 min): 980.1 nM | Calculated Conc. for dexamethasone rat lysomeal lysate ([7]; 1 h): 41.6 nM | Calculated Conc. for each compound in rat lysomal lysate ([7]; 1 h): 882.4 nM | Calculated Conc. for dexamethasone rat lysomeal lysate ([7]; 2 h): 72.5 nM | Calculated Conc. for each compound in rat lysomal lysate ([7]; 2 h): 880.1 nM | Calculated Conc. for dexamethasone rat lysomeal lysate ([7]; 3 h): 90.2 nM | Calculated Conc. for each compound in rat lysomal lysate ([7]; 3 h): 903.8 nM | Calculated Conc. for dexamethasone rat lysomeal lysate ([7]; 6 h): 141.9 nM | Calculated Conc. for each compound in rat lysomal lysate ([7]; 6 h): 858.9 nM | rate of dexamethasone release in rat lysosomal extract (in words) ([6]; compared with 3-4, 5-3 releasing faster than 4-3): more slowly released

Molecule: CD74 Ab: anti-CD74 antibody LL1, HC SEQ ID NO:69, LC SEQ ID NO:73, pAzF at position 121
Emax [1]: 1.34 | Emax [2]: 1.02 | Emax [3]: 1.02

The next lines start with results.

EC50 [1]: 0.45 nM | EC50 [2]: 0.52 nM | EC50 [3]: 0.46 nM
Molecule: CCC(=O)O[C@]1(C(=O)SCF)[C@H](C)C[C@H]2[C@@H]3C[C@H](F)C4=CC(=O)C=C[C@]4(C)[C@@]3(F)[C@@H](O)C[C@@]21C [Fluticasone Propionate, fluticasone propionate]
Emax [1]: 10.27 | Emax [2]: 15.78 | Emax [3]: 25.38

Calculated Conc. for each compound in human whole blood ([5]; 0 m, 37° C.): 1687 nM | Calculated Conc. for each compound in human whole blood ([5]; 20 m, 37° C.): 2409 nM | Calculated Conc. for each compound in human whole blood ([5]; 1 hr, 37° C.): 2224 nM | Calculated Conc. for each compound in human whole blood ([5]; 3 hr, 37° C.): 1502 nM | Calculated Conc. for each compound in human whole blood ([5]; 6 hr, 37° C.): 2792 nM | Calculated Conc. for each compound in human whole blood [5, 8]: 2939 nM | Calculated Conc. for each compound in rat lysomal lysate ([6]; 0 m, 37° C.): 1456.4 nM | Calculated Conc. for each compound in rat lysomal lysate ([6]; 5 m, 37° C.): 1851.2 nM | Calculated Conc. for each compound in rat lysomal lysate ([6]; 10 m, 37° C.): 1640.8 nM | Calculated Conc. for each compound in rat lysomal lysate ([6]; 15 m, 37° C.): 1666.7 nM | Calculated Conc. for each compound in rat lysomal lysate ([6]; 30 m, 37° C.): 1602.6 nM | Calculated Conc. for each compound in rat lysomal lysate ([6]; 1 hr, 37° C.): 1576.8 nM | Calculated Conc. for each compound in rat lysomal lysate ([6]; 2 hr, 37° C.): 1681.0 nM | Calculated Conc. for each compound in rat lysomal lysate ([6]; 3 hr, 37° C.): 1689.7 nM | Calculated Conc. for each compound in rat lysomal lysate ([6]; 6 hr, 37° C.): 1689.8 nM | Calculated Conc. for each compound in rat lysomal lysate [6, 9]: 2059.0 nM
Molecule: C[C@@H]1C[C@H]2[C@@H]3CCC4=CC(=O)C=C[C@]4(C)[C@@]3(F)[C@@H](O)C[C@]2(C)[C@@]1(O)C(=O)CO [Dexamethasone, dexamethasone, reference compound]

From patent publication US11510993B2, “Antibody drug conjugate for anti-inflammatory applications” (Merck Sharp & Dohme Corp., priority 2015, dated 2022)
